14 molecules from patent US20240409585A1, “MACROCYCLIC IMMUNOMODULATORS” (priority 2021, published 2024) can be followed below.

Molecules are shown by their SMILES. Bridge positions count the residues as written; N and C are the ends. Square brackets hold non-standard residues; d marks the D form. Peptide text beside a SMILES is read from it. * marks the point of attachment. ξ: configuration not given here. Phe(4-COOH) = N[C@@H](Cc1ccc(C(=O)O)cc1)C(=O)O; Bip = N[C@@H](Cc1ccc(-c2ccccc2)cc1)C(=O)O; Phe(3-Cl) = N[C@@H](Cc1cccc(Cl)c1)C(=O)O; dPhe(4-Br) = N[C@H](Cc1ccc(Br)cc1)C(=O)O; Phe(3-Me) = Cc1cccc(C[C@H](N)C(=O)O)c1; Val(3-OH) = CC(C)(O)[C@H](N)C(=O)O; aIle = CC[C@@H](C)[C@H](N)C(=O)O; 4Pal = N[C@@H](Cc1ccncc1)C(=O)O; Cha = N[C@@H](CC1CCCCC1)C(=O)O; Cit = NC(=O)NCCC[C@H](N)C(=O)O; Ile(3ξ) = CCC(C)[C@H](N)C(=O)O; AllylGly = C=CC[C@H](N)C(=O)O; Thr(3ξ) = CC(O)[C@H](N)C(=O)O; NMeNle = CCCC[C@H](NC)C(=O)O; Carboxymethyl = O=C(O)C*; NMeA = CN[C@@H](C)C(=O)O; Dab = NCC[C@H](N)C(=O)O; ξV = CC(C)C(N)C(=O)O; ξC = NC(CS)C(=O)O

The target of this assay is T1, PE-labeled human PD-L1-Ig binding to Jurkat cell line over-expressing human PD-1 (Jurkat-PD-1) (Homo sapiens, UniProt Q15116).
T1 construct: expressed in transfected cells; host or cells: Jurkat
T1 sequence (Q15116 25-288): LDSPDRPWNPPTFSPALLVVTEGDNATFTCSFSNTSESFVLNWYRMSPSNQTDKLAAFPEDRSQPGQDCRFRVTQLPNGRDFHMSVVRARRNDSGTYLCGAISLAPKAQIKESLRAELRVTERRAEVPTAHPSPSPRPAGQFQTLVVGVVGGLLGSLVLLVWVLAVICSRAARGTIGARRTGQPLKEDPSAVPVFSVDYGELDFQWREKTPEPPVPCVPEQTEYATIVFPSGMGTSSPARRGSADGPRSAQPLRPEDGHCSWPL
As to the kind of experiment: Jurkat-PD-1 Cell Binding High-Content Screening Assay (CBA): Method 1. Conditions: Jurkat-hPD-1 cells, PE-labeled PD-L1-Ig 20 nM final; read-out: Jurkat HPDL1 PD1 IC50 (uM) (Method 1).
As to `CC(C)C[C@@H]1NC(=O)[C@H](CCCNC(=N)N)NC(=O)[C@H](Cc2cccc(Cl)c2)NC(=O)[C@H](C)N(C)C(=O)[C@H](CCCNC(=N)N)NC(=O)[C@H](Cc2ccc(-c3ccccc3)cc2)NC(=O)[C@H](C(C)C)NC(=O)[C@H](Cc2c[nH]c3ccccc23)NC(=O)[C@H](CC(=O)O)NC(=O)[C@H](Cc2ccc(O)cc2)NC(=O)[C@H](Cc2ccccc2)NC(=O)CSC[C@@H](C(=O)NCC(N)=O)NC(=O)[C@H](CO)NC(=O)[C@H](C(C)C)NC1=O` [Compound 1014] ({CH2CO}-FYDWV[Bip]R[NMeA][Phe(3-Cl)]RLVSCG-NH2; thioether N-14), the concentration for half-maximal inhibition (IC50) amounted to 0.2 µM.
In the case of `CCC(C)[C@@H]1NC(=O)[C@H](Cc2ccc(-c3ccccc3)cc2)NC(=O)[C@H](C(C)C)NC(=O)[C@H](Cc2c[nH]c3ccccc23)NC(=O)[C@H](CC(=O)O)NC(=O)[C@H](Cc2ccc(O)cc2)NC(=O)[C@H](CCN)NC(=O)CSC[C@@H](C(=O)N[C@H](C(N)=O)C(C)C)NC(=O)[C@H](C(C)O)NC(=O)[C@H](C(C)(C)O)NC(=O)[C@H](CC2CCCCC2)NC(=O)[C@H](CC(N)=O)NC(=O)[C@@H](CC(C)C)NC(=O)[C@H](C)N(C)C1=O` (stereo partly drawn) [Compound 2173] ({CH2CO}-[Dab]YDWV[Bip][Ile(3ξ)][NMeA][dL]N[Cha][Val(3-OH)][Thr(3ξ)]CV-NH2; thioether N-14) it was 0.19 µM.
For `CC(C)C[C@@H]1NC(=O)[C@H](CCCNC(=N)N)NC(=O)[C@@H](Cc2ccc(Br)cc2)NC(=O)[C@H](C)N(C)C(=O)[C@H](CCCNC(=N)N)NC(=O)[C@H](Cc2ccc(-c3ccccc3)cc2)NC(=O)[C@H](C(C)C)NC(=O)[C@H](Cc2c[nH]c3ccccc23)NC(=O)[C@H](CC(=O)O)NC(=O)[C@H](Cc2ccc(O)cc2)NC(=O)[C@H](Cc2ccccc2)NC(=O)CSC[C@@H](C(=O)N[C@@H](C)C(N)=O)NC(=O)[C@H]([C@@H](C)O)NC(=O)[C@H](C(C)C)NC1=O` [Compound 1086] ({CH2CO}-FYDWV[Bip]R[NMeA][dPhe(4-Br)]RLVTCA-NH2; thioether N-14), the IC50 is 0.69 µM.
`CC(C)C[C@@H]1NC(=O)[C@H](Cc2c[nH]c3ccccc23)NC(=O)[C@H](CC(=O)O)NC(=O)[C@H](Cc2ccc(O)cc2)NC(=O)[C@H](Cc2ccccc2)NC(=O)CSC[C@@H](C(=O)NCC(N)=O)NC(=O)[C@H](CO)NC(=O)[C@H](C(C)C)NC(=O)[C@H](CC(C)C)NC(=O)[C@H](CC(N)=O)NC(=O)[C@H](CO)NC(=O)[C@H](C)N(C)C(=O)[C@H](C(C)C)NC(=O)[C@H](Cc2ccc(-c3ccccc3)cc2)NC1=O` [Compound 1007] ({CH2CO}-FYDWL[Bip]V[NMeA]SNLVSCG-NH2; thioether N-14): the IC50 worked out at 0.26 µM.
With `CC(=O)NCCCC[C@@H]1NC(=O)[C@H](Cc2ccc(-c3ccccc3)cc2)NC(=O)[C@H](Cc2ccc(O)cc2)NC(=O)[C@H](Cc2cccc(C)c2)NC(=O)[C@H](CC(=O)O)NC(=O)[C@H](Cc2ccc(OCC(=O)O)cc2)NC(=O)[C@H](C(C)O)NC(=O)CSC[C@@H](C(=O)N[C@@H](CO)C(N)=O)NC(=O)[C@H](C(C)O)NC(=O)[C@H](C(C)C)NC(=O)[C@H](CC2CCCCC2)NC(=O)[C@H](CCN)NC(=O)[C@@H](CC(C)C)NC(=O)[C@H](C)N(C)C1=O` (stereo partly drawn) [Compound 2119] ({CH2CO}-[Thr(3ξ)]Y(Carboxymethyl)D[Phe(3-Me)]Y[Bip]K(Ac)[NMeA][dL][Dab][Cha]V[Thr(3ξ)]CS-NH2; thioether N-14), the half-inhibitory concentration (IC50) is 0.02 µM.
Regarding `CCC(C)[C@@H]1NC(=O)[C@H](Cc2ccc(-c3ccccc3)cc2)NC(=O)[C@H](C(C)C)NC(=O)[C@H](Cc2c[nH]c3ccccc23)NC(=O)[C@H](CC(=O)O)NC(=O)[C@H](Cc2ccc(OCC(=O)O)cc2)NC(=O)[C@H](C(C)O)NC(=O)CSC[C@@H](C(N)=O)NC(=O)[C@H](C(C)O)NC(=O)[C@H](C(C)C)NC(=O)[C@H](CC2CCCCC2)NC(=O)[C@H](CCN)NC(=O)[C@@H](CC(C)C)NC(=O)[C@H](C)N(C)C1=O` (stereo partly drawn) [Compound 2248] ({CH2CO}-[Thr(3ξ)]Y(Carboxymethyl)DWV[Bip][Ile(3ξ)][NMeA][dL][Dab][Cha]V[Thr(3ξ)]C-NH2; thioether N-14), the IC50 turned out to be 0.04 µM.
In the case of `Cc1cccc(C[C@@H]2NC(=O)[C@H](CC(=O)O)NC(=O)[C@H](Cc3ccc(OCC(=O)O)cc3)NC(=O)[C@H](Cc3ccncc3)NC(=O)CSC[C@@H](C(N)=O)NC(=O)[C@H](CCC(=O)O)NC(=O)[C@H](C(C)C)NC(=O)[C@H](CC3CCCCC3)NC(=O)[C@H](CCN)NC(=O)[C@@H](CC(C)C)NC(=O)[C@H](C)N(C)C(=O)[C@H](Cc3ccc(OCC(=O)O)cc3)NC(=O)[C@H](Cc3ccc(-c4ccccc4)cc3)NC(=O)[C@H](Cc3ccc(OCC(=O)O)cc3)NC2=O)c1` [Compound 1661] ({CH2CO}-[4Pal]Y(Carboxymethyl)D[Phe(3-Me)]Y(Carboxymethyl)[Bip]Y(Carboxymethyl)[NMeA][dL][Dab][Cha]VEC-NH2; thioether N-14) it was 0.05 µM.
Consider `CC(C)C[C@@H]1NC(=O)[C@H](CCCNC(=N)N)NC(=O)[C@@H](CC(C)C)NC(=O)[C@H](C)N(C)C(=O)[C@H](CCCNC(N)=O)NC(=O)[C@H](Cc2ccc(-c3ccccc3)cc2)NC(=O)[C@H](C(C)C)NC(=O)[C@H](Cc2c[nH]c3ccccc23)NC(=O)[C@H](CC(=O)O)NC(=O)[C@H](Cc2ccc(O)cc2)NC(=O)[C@H](CC(N)=O)NC(=O)CSC[C@@H](C(=O)N[C@@H](CCC(=O)O)C(N)=O)NC(=O)[C@H](CO)NC(=O)[C@H](C(C)C)NC1=O` [Compound 1236] ({CH2CO}-NYDWV[Bip][Cit][NMeA][dL]RLVSCE-NH2; thioether N-14), for which the IC50 turned out to be 0.11 µM.
In the case of `CC(C)C[C@@H]1NC(=O)[C@H](Cc2c[nH]c3ccccc23)NC(=O)[C@H](CC(=O)O)NC(=O)[C@H](Cc2ccc(O)cc2)NC(=O)[C@H](Cc2ccccc2)NC(=O)CSC[C@@H](C(=O)N[C@@H](C)C(N)=O)NC(=O)[C@H](CO)NC(=O)[C@H](C(C)C)NC(=O)[C@H](CC(C)C)NC(=O)[C@H](CC(N)=O)NC(=O)[C@@H](CCC(=O)O)NC(=O)[C@H](C)N(C)C(=O)[C@H](C(C)C)NC(=O)[C@H](Cc2ccc(-c3ccccc3)cc2)NC1=O` [Compound 1820] ({CH2CO}-FYDWL[Bip]V[NMeA][dE]NLVSCA-NH2; thioether N-14) it was 0.48 µM; in that of `CC(C)C[C@@H]1NC(=O)[C@H](CCCNC(=N)N)NC(=O)[C@@H](CC(C)C)NC(=O)[C@H](C)N(C)C(=O)[C@H](CCCNC(=N)N)NC(=O)[C@H](Cc2ccc(-c3ccccc3)cc2)NC(=O)[C@H](C(C)C)NC(=O)[C@H](Cc2c[nH]c3ccccc23)NC(=O)[C@H](CC(=O)O)NC(=O)[C@H](Cc2ccncc2)NC(=O)[C@H](Cc2ccccc2)NC(=O)CSC[C@@H](C(=O)N[C@@H](C)C(N)=O)NC(=O)[C@H]([C@@H](C)O)NC(=O)[C@H](C(C)C)NC1=O` [Compound 1085] ({CH2CO}-F[4Pal]DWV[Bip]R[NMeA][dL]RLVTCA-NH2; thioether N-14), 0.07 µM.
As for `CC(C)C[C@@H]1NC(=O)[C@H](CCN)NC(=O)[C@@H](CC(C)C)NC(=O)[C@H](C)N(C)C(=O)[C@H](CCCNC(N)=O)NC(=O)[C@H](Cc2ccc(-c3ccccc3)cc2)NC(=O)[C@H](C(C)C)NC(=O)[C@H](Cc2c[nH]c3ccccc23)NC(=O)[C@H](CC(=O)O)NC(=O)[C@H](Cc2ccc(O)cc2)NC(=O)[C@H](Cc2ccc(C(=O)O)cc2)NC(=O)CSC[C@@H](C(=O)N[C@@H](C)C(N)=O)NC(=O)[C@H]([C@@H](C)O)NC(=O)[C@H](C(C)C)NC1=O` [Compound 1326] ({CH2CO}-[Phe(4-COOH)]YDWV[Bip][Cit][NMeA][dL][Dab]LVTCA-NH2; thioether N-14), the 50% inhibitory concentration (IC50) turned out to be 0.02 µM.
Then `CC[C@@H](C)[C@@H]1NC(=O)[C@H](Cc2ccc(-c3ccccc3)cc2)NC(=O)[C@H](CC(C)C)NC(=O)[C@H](Cc2c[nH]c3ccccc23)NC(=O)[C@H](CC(=O)O)NC(=O)[C@H](Cc2ccc(C(=O)O)cc2)NC(=O)[C@H](Cc2ccc(OCC(=O)O)cc2)NC(=O)CSC[C@@H](C(=O)N[C@@H](CCCCN)C(N)=O)NC(=O)[C@H](CC(N)=O)NC(=O)C(C(C)C)NC(=O)[C@H](CC(C)C)NC(=O)[C@H](CC(N)=O)NC(=O)[C@@H](CC(C)C)NC(=O)[C@H](C)N(C)C1=O` (stereo partly drawn) [Compound 2109] ({CH2CO}-Y(Carboxymethyl)[Phe(4-COOH)]DWL[Bip][aIle][NMeA][dL]NL[ξV]NCK-NH2; thioether N-14), with 0.2 µM; and `CCCC[C@H]1C(=O)N[C@H](CC(C)C)C(=O)N[C@@H](CCN)C(=O)N[C@@H](CC(C)C)C(=O)N[C@@H](C(C)C)C(=O)N[C@@H]([C@@H](C)O)C(=O)N[C@H](C(=O)N[C@@H](C)C(N)=O)CSCC(=O)N[C@@H](CC(N)=O)C(=O)N[C@@H](Cc2ccc(O)cc2)C(=O)N[C@@H](CC(=O)O)C(=O)N[C@@H](Cc2c[nH]c3ccccc23)C(=O)N[C@@H](C(C)C)C(=O)N[C@@H](Cc2ccc(-c3ccccc3)cc2)C(=O)N[C@@H](C(C)C)C(=O)N1C` [Compound 1365] ({CH2CO}-NYDWV[Bip]V[NMeNle][dL][Dab]LVTCA-NH2; thioether N-14), with 0.01 µM.
As to `C=CC[C@@H]1NC(=O)[C@H](Cc2cccc(C)c2)NC(=O)[C@H](CC(=O)O)NC(=O)[C@H](Cc2ccncc2)NC(=O)[C@H](Cc2ccc(OCC(=O)O)cc2)NC(=O)CSCC(C(=O)NCC(N)=O)NC(=O)[C@H](CC=C)NC(=O)[C@H](C(C)C)NC(=O)[C@H](CC(C)C)NC(=O)[C@H](CC(N)=O)NC(=O)[C@@H](CC(C)C)NC(=O)[C@H](C)N(C)C(=O)[C@H](C(C)C)NC(=O)[C@H](Cc2ccc(-c3ccccc3)cc2)NC1=O` (stereo partly drawn) [Compound 1880] ({CH2CO}-Y(Carboxymethyl)[4Pal]D[Phe(3-Me)][AllylGly][Bip]V[NMeA][dL]NLV[AllylGly][ξC]G-NH2; thioether N-14), the IC50 was determined as 0.05 µM.

A word on the IC50: it is the concentration at which inhibition is half-maximal.
